Source: patent US12371428B2 (Exelixis, Inc., priority 2019, dated 2025)

Tests used:
[1] = molecular target: Human KDR (residues 790-1356) (Homo sapiens (Human), UniProt P35968); test: Human KDR kinase assay, HTRF KinEase (Example B-2); type: biochemical; conditions: protocol of Example B-2 (other compounds)
Summary of the method: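 Ten compound concentrations (3% DMSO final) were pre-plated, then KDR (790-1356) with biotinylated peptide in Mg/Mn/DTT buffer was added; ATP at Km (4.0 μM) started a 40 min room-temperature reaction. Detection used Eu-TK antibody and SA-XL665 in EDTA buffer; activity normalized to DMSO and reference inhibitor, IC50 by logistic fit.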

[2] = molecular target: Human MER (residues 528-999) (Homo sapiens (Human), UniProt Q12866); test: Human Mer kinase assay, HTRF KinEase (Example C-2); type: biochemical; conditions: protocol of Example C-2 (other compounds)
Summary of the method: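 Recombinant MER 528-999 (1 ng/well) in buffer with 5 mM MgCl2 and 1 mM DTT was reacted with biotinylated peptide and ATP at Km (40 μM) for 60 min at room temperature. EDTA stop with SA-XL665 and Eu3+ TK antibody, then 665/620 nm HTRF read; IC50 from 4-parameter fit.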

[3] = molecular target: KDR (phospho-KDR, VEGF165-stimulated HUVEC cells) (Homo sapiens (Human), UniProt P35968); test: KDR autophosphorylation ELISA in HUVEC cells (Example G); type: cell-based; conditions: cellular activity; KDR autophosphorylation ELISA in HUVEC cells
Summary of the method: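 Read-out: phospho-KDR in cell lysates by DuoSet IC ELISA, normalised between VEGF-stimulated DMSO wells (100%) and unstimulated wells (0%). Human endothelial cells were starved overnight in serum-free medium, exposed to compound for 1 h, and then pulsed with 100 ng/mL VEGF165 for 5 min.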

[4] = molecular target: Met (phospho-Met, HGF-stimulated PC-3 prostate cancer cells) (Homo sapiens (Human), UniProt P08581); test: Met autophosphorylation ELISA in PC-3 cells (Example F); type: cell-based; conditions: cellular activity; Met autophosphorylation ELISA in PC-3 cells; read-out: c-Met IC50
Summary of the method: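 PC-3 cells, serum-starved 3 h, were treated with compounds (8-point dose curve, 0.3% DMSO final) for 1 h, then stimulated with 100 ng/mL recombinant human HGF for 10 min. Lysate phospho-Met (panTyr) was quantified by sandwich ELISA; IC50 from 4-parameter logistic fit.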

Sequence of Met (phospho-Met, HGF-stimulated PC-3 prostate cancer cells) (P08581 25-1390): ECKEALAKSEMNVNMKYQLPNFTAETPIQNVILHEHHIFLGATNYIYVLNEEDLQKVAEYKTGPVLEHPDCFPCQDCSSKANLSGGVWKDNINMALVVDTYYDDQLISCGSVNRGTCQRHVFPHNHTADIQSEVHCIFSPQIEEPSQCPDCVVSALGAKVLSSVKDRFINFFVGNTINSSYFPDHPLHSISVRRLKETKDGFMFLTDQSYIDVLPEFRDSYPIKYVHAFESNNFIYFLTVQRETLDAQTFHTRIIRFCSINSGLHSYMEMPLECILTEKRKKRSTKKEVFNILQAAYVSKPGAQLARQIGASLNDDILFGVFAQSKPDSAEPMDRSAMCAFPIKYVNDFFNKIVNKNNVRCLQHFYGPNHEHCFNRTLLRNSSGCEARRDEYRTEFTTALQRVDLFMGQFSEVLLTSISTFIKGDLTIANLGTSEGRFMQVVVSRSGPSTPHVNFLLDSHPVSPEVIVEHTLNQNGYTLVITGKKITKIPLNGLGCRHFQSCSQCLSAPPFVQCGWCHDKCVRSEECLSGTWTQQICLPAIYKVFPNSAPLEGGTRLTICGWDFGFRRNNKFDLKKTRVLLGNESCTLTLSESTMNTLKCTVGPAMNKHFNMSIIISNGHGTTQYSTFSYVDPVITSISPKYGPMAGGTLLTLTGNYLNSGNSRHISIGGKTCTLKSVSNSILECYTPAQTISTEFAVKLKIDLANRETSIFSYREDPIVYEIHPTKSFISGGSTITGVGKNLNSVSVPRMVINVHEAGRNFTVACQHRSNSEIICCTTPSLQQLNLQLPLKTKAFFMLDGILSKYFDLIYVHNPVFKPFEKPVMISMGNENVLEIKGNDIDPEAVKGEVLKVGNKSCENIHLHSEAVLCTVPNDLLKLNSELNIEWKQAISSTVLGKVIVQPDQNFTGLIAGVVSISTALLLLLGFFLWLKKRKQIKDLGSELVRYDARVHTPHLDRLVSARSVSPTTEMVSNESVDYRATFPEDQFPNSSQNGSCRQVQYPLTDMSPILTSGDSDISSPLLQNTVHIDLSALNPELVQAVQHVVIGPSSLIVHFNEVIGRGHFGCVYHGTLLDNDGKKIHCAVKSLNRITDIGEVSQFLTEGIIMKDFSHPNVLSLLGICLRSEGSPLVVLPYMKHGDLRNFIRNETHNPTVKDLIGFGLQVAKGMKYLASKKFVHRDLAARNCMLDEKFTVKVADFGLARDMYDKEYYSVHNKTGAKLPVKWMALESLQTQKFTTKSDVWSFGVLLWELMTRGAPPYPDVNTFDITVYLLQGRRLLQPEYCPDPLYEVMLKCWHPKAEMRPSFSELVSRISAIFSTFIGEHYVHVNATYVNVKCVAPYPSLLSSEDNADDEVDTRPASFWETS
Sequence of Human KDR (residues 790-1356) (P35968 790-1356): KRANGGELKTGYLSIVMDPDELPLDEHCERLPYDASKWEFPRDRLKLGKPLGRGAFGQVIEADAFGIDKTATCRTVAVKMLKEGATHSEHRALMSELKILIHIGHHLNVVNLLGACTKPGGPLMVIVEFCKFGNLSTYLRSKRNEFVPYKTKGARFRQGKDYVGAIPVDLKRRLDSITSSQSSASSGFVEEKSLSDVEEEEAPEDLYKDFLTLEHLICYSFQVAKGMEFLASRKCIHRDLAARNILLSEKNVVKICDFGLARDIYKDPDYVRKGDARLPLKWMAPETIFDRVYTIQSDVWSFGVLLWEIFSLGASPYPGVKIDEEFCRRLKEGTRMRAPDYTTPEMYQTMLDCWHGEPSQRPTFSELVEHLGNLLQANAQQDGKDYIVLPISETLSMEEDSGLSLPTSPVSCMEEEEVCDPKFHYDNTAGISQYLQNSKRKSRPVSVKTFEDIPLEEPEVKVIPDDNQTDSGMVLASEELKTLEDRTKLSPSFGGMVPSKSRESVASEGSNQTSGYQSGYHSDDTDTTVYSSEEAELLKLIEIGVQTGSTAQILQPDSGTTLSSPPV
Sequence of Human MER (residues 528-999) (Q12866 528-999): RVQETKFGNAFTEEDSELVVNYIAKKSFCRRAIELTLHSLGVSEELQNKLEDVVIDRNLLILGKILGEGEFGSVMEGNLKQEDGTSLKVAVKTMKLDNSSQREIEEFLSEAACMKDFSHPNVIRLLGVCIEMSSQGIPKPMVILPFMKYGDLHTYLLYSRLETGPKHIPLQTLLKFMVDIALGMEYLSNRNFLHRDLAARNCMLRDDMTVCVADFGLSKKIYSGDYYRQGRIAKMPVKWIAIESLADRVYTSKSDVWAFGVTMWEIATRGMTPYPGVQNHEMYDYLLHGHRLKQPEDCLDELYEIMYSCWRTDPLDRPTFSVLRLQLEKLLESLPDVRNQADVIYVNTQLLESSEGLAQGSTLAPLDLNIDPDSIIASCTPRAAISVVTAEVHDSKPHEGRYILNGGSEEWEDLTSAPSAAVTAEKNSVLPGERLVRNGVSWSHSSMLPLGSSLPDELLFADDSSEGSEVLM
Sequence of KDR (phospho-KDR, VEGF165-stimulated HUVEC cells) (P35968 20-1356): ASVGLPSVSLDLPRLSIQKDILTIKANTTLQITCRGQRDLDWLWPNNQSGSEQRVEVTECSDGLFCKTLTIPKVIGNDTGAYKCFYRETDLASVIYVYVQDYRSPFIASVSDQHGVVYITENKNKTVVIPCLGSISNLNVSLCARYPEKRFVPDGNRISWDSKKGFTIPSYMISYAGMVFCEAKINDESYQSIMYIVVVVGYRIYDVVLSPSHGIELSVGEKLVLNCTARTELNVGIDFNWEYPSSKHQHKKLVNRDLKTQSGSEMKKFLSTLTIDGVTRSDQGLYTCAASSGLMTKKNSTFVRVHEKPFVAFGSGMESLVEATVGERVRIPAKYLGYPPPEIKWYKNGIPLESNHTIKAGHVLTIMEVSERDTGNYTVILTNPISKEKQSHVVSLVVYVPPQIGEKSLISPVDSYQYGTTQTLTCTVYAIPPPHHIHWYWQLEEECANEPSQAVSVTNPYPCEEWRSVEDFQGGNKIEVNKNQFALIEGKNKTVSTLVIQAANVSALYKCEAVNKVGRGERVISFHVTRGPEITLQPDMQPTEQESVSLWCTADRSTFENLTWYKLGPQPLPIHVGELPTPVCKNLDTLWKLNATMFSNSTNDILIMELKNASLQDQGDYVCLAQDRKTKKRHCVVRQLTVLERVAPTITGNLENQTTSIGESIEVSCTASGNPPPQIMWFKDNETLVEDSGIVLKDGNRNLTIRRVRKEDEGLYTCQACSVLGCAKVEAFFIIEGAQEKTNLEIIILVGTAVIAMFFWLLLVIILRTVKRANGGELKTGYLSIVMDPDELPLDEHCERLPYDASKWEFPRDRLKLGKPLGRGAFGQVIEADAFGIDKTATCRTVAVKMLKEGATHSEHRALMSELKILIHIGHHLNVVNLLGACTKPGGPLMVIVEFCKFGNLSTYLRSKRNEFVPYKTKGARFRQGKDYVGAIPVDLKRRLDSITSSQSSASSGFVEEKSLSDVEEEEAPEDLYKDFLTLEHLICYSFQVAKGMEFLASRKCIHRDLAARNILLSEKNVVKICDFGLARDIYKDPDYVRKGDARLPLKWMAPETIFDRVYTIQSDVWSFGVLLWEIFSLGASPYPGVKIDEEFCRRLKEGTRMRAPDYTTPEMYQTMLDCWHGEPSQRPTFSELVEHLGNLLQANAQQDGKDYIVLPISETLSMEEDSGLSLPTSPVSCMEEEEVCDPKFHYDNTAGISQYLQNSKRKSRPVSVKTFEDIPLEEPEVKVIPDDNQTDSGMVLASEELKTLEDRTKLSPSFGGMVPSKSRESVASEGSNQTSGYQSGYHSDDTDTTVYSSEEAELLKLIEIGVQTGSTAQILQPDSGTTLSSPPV

IC50 [1] [nM] | IC50 [2] [nM] | IC50 [3] [nM] | IC50 [4] [nM] | Compound
100 to 300 | < 100 | > 300 | < 100 | COc1cc2nccc(Oc3ccc(NC(=O)c4nc(C)c(C)n(-c5ccc(F)cc5)c4=O)cc3F)c2nc1OC [Compound 95, N-[4-[(6,7-Dimethoxy-1,5-naphthyridin-4-yl)oxy]-3-fluorophenyl]-4-(4-fluorophenyl)-5,6-dimethyl-3-oxopyrazine-2-carboxamide]
< 100 | < 100 | < 100 | < 100 | COc1cc2nccc(Oc3ccc(NC(=O)c4ncnc(-c5ccc(F)cc5)c4O)cc3F)c2nc1OC [Compound 96, N-[4-[(6,7-Dimethoxy-1,5-naphthyridin-4-yl)oxy]-3-fluorophenyl]-6-(4-fluorophenyl)-5-hydroxypyrimidine-4-carboxamide]
> 300 | < 100 | > 300 | < 100 | COc1cc2nccc(Oc3ncc(NC(=O)c4cn(-c5cnn(C)c5)cc(-c5ccc(F)cc5)c4=O)cc3F)c2cc1OC [Compound 401, N-[6-(6,7-dimethoxyquinolin-4-yl)oxy-5-fluoropyridin-3-yl]-5-(4-fluorophenyl)-1-(1-methylpyrazol-4-yl)-4-oxopyridine-3-carboxamide]
> 300 | < 100 | > 300 | < 100 | COc1cc2nccc(Oc3ncc(NC(=O)c4cn(-c5ccn(C)n5)cc(-c5ccc(F)cc5)c4=O)cc3F)c2cc1OC [Compound 402, N-[6-(6,7-dimethoxyquinolin-4-yl)oxy-5-fluoropyridin-3-yl]-5-(4-fluorophenyl)-1-(1-methylpyrazol-3-yl)-4-oxopyridine-3-carboxamide]
> 300 | < 100 | 100 to 300 | < 100 | CCOc1c(-c2ccc(F)cc2)cnc(C)c1C(=O)Nc1ccc(Oc2ccnc3cc(OC)c(OC)nc23)c(F)c1 [Compound 403, N-[4-[(6,7-dimethoxy-1,5-naphthyridin-4-yl)oxy]-3-fluorophenyl]-4-ethoxy-5-(4-fluorophenyl)-2-methylpyridine-3-carboxamide]
100 to 300 | < 100 | > 300 | < 100 | COc1cc2nccc(Oc3ccc(NC(=O)c4c5n(cc(-c6ccc(F)cc6)c4=O)CCC5)cc3)c2nc1OC [Compound 407, N-[4-[(6,7-dimethoxy-1,5-naphthyridin-4-yl)oxy]phenyl]-6-(4-fluorophenyl)-7-oxo-2,3-dihydro-1H-indolizine-8-carboxamide]
< 100 | < 100 | < 100 | < 100 | CNC(=O)c1cc2c(Oc3ccc(NC(=O)c4c5n(cc(-c6ccc(F)cc6)c4=O)CCC5)cc3F)ccnc2cc1OC [Compound 408, 4-[2-fluoro-4-[[6-(4-fluorophenyl)-7-oxo-2,3-dihydro-1H-indolizine-8-carbonyl]amino]phenoxy]-7-methoxy-N-methylquinoline-6-carboxamide]
< 100 | < 100 | < 100 | < 100 | COc1cc2nccc(Oc3ccc(NC(=O)c4c5n(cc(-c6ccc(F)cc6)c4=O)CCC5)cc3F)c2cc1OC [Compound 409, N-[4-(6,7-dimethoxyquinolin-4-yl)oxy-3-fluorophenyl]-6-(4-fluorophenyl)-7-oxo-2,3-dihydro-1H-indolizine-8-carboxamide]
> 300 | < 100 | > 300 | 100 to 300 | CCn1cc(C(=O)Nc2ccc(Oc3ccnc4cc(O)cnc34)c(F)c2)c(=O)c(-c2ccc(F)cc2)c1C [Compound 410, 1-ethyl-N-[3-fluoro-4-[(7-hydroxy-1,5-naphthyridin-4-yl)oxy]phenyl]-5-(4-fluorophenyl)-6-methyl-4-oxopyridine-3-carboxamide]
> 300 | < 100 | > 300 | < 100 | COc1cnc2c(Oc3ccc(NC(=O)c4cn(C)c(Cl)c(-c5ccc(F)cc5)c4=O)cc3F)ccnc2c1 [Compound 411, 6-chloro-N-[3-fluoro-4-[(7-methoxy-1,5-naphthyridin-4-yl)oxy]phenyl]-5-(4-fluorophenyl)-1-methyl-4-oxopyridine-3-carboxamide]
< 100 | < 100 | < 100 | < 100 | COc1cc2nccc(Oc3ccc(NC(=O)c4cn(C)c(Cl)c(-c5ccc(F)cc5)c4=O)cc3F)c2nc1OC [Compound 412, 6-chloro-N-[4-[(6,7-dimethoxy-1,5-naphthyridin-4-yl)oxy]-3-fluorophenyl]-5-(4-fluorophenyl)-1-methyl-4-oxopyridine-3-carboxamide]
< 100 | < 100 | < 100 | < 100 | COc1cc2nccc(Oc3ccc(NC(=O)c4cnc(C)c(-c5ccc(F)cc5)c4O)cc3)c2nc1OC(C)C [Compound 413, 5-(4-fluorophenyl)-4-hydroxy-N-[4-[(7-methoxy-6-propan-2-yloxy-1,5-naphthyridin-4-yl)oxy]phenyl]-6-methylpyridine-3-carboxamide]
> 300 | < 100 | < 100 | < 100 | COc1cc2nccc(Oc3ccc(NC(=O)c4cnc(C)c(-c5ccc(F)cc5C)c4O)cc3)c2nc1OC(C)C [Compound 414, 5-(4-fluoro-2-methylphenyl)-4-hydroxy-N-[4-[(7-methoxy-6-propan-2-yloxy-1,5-naphthyridin-4-yl)oxy]phenyl]-6-methylpyridine-3-carboxamide]
100 to 300 | < 100 | < 100 | < 100 | COc1cc2nccc(Oc3ccc(NC(=O)c4cnc(C)c(-c5ccc(F)cc5)c4O)cc3F)c2nc1OC(C)C [Compound 415, N-[3-fluoro-4-[(7-methoxy-6-propan-2-yloxy-1,5-naphthyridin-4-yl)oxy]phenyl]-5-(4-fluorophenyl)-4-hydroxy-6-methylpyridine-3-carboxamide]
> 300 | < 100 | < 100 | < 100 | COc1cc2nccc(Oc3ccc(NC(=O)c4cnc(C)c(-c5ccc(F)cc5C)c4O)cc3F)c2nc1OC(C)C [Compound 416, N-[3-fluoro-4-[(7-methoxy-6-propan-2-yloxy-1,5-naphthyridin-4-yl)oxy]phenyl]-5-(4-fluoro-2-methylphenyl)-4-hydroxy-6-methylpyridine-3-carboxamide]
> 300 | 100 to 300 | 100 to 300 | < 100 | COc1cnc2c(Oc3ccc(NC(=O)c4cnc(C)c(-c5c(C)cc(F)cc5C)c4O)cc3F)ccnc2c1 [Compound 417, 5-(4-fluoro-2,6-dimethylphenyl)-N-[3-fluoro-4-[(7-methoxy-1,5-naphthyridin-4-yl)oxy]phenyl]-4-hydroxy-6-methylpyridine-3-carboxamide]
100 to 300 | < 100 | < 100 | < 100 | CCc1cnc2c(Oc3ccc(NC(=O)c4cnc(C)c(-c5ccc(F)cc5)c4O)cc3F)ccnc2c1 [Compound 418, N-[4-[(7-ethyl-1,5-naphthyridin-4-yl)oxy]-3-fluorophenyl]-5-(4-fluorophenyl)-4-hydroxy-6-methylpyridine-3-carboxamide]
